Where a SMILES comes first, the peptide text is derived from it. [ ]: non-standard residue; d: D form. ξ: configuration not given here. ξP = O=C(O)C1CCCN1
Legend:
AMPA receptor [1] = assay: Whole cell patch-clamp on CA1 pyramidal cells in brain slices, synaptic AMPA responses; type: cell-based, C57BL/6 mice
Protocol: Whole cell patch-clamp experiments were performed in parasagital brain slices on CAI pyramidal cells. The animals used for this study were C57BL/6 mice. After decapitation of the mice brains were quickly removed and placed in aerated (95% O2, 5% CO2) artificial cerebrospinal fluid (ASCF) solution at 4° C. The ACSF solution was composed of (mM): 124 NaCl, 2.5 KCl, 1.3 MgCl2, 26 NaHCO3, 1.25 NaH2PO4, 2.5 CaCl2 […] Synaptic AMPA responses were evoked every 10 seconds with a bipolar platinum electrode and recorded in the voltage clamp configuration with 4-5 MΩ patch pipette at a holding potential of −60 mV. Baseline recordings were performed with 100 μM picrotoxin in the ACSF. After establishing a stable synaptic AMPA response the tripeptide EPP (140 μM) was added to the bath, continuing the recording for an additional 20 to 30 minutes. At the end of every experiment NBQX (20 μM) was bath applied to block the AMPA response. The residual trace was subtracted from the previous recordings to show only the AMPA current. […]
Parameters measured to estimate the action of EPP were the holding current, amplitude, and initial slope of the AMPA responses. Additionally the amplitude ratio and initial slope ratio of the two AMPA responses from the paired pulse experiments was determined.

AMPA receptor [2] = assay: [3H] AMPA radioligand binding assay; conditions: displacement of 5 nM [3H] AMPA, rat cerebral cortex membranes, 25° C., 90 min; semi-quantitative, duplicates
Protocol: Polypeptides or amino acid compositions of the instant invention were tested for the ability to bind to the AMPA receptor using a previously validated [3H] AMPA radioligand to binding assay (see, for example Olsen R W, Szamraj O, Houser C R Brain Res. 1987; 402(2):243-54.). Upon binding, the peptide is displacing the parent radioligand from the glutamate binding site of the AMPA receptor. Binding inhibition of 50% or more is generally considered as significant.
The membrane has been prepared as described in example 1.
Frozen pellets were thawed at room temperature and washed three times by resuspension in 50 mM Tris-acetate (pH 7.4) and centrifugation. Final pellets were suspended at concentrations of 2 to 3 mg/ml in 50 mM Tris-HCl (pH 7.4, 200 mM KSCN). Binding reactions were initiated by the addition of 200 μg of freshly prepared membranes to reaction mixtures (about 1 ml final volume) containing 5 nM [3H] AMPA at 25° C. in the presence of a range of peptide concentrations (0.5 μM, 1 μM, 10 μM, 100 μM and 200 μM). Incubation time was 90 min. Non-specific binding was determined using 1000 μM unlabelled L-Glutamic acid. […]
(§1) Assay results are presented as the % inhibition of specific binding. […] Semi-quantitative follow-up to estimate IC50 was done in duplicates at the indicated peptide concentrations.

[3] = biological target: glycine co-agonist site on the NMDA receptor (Rattus norvegicus, UniProt P35439); assay: [3H] MDL-105519 radioligand binding assay, glycine co-agonist site of the NMDA receptor; conditions: displacement of 0.33 nM [3H] MDL-105519, rat cerebral cortex membranes
Protocol: Polypeptides or amino acid compositions of the instant invention were tested for the ability to bind to the glycine co-agonist site on the NMDA receptor using a previously validated [3H] MDL-105519 radioligand binding assay (see, for example Siegel B W, Sreekrishna K, Baron B M. Eur J Pharmacol. 1996 Oct. 3; 312(3):357-65). Upon binding, the peptide is displacing the parent radioligand from the NR1a binding site of the NMDA receptor. Binding inhibition of 50% or more is generally considered as significant.
Crude synaptic membranes used in the assay were prepared using rat cerebral cortex tissue (male Wistar rats) and extensively washed using the procedures described previously (Haring et al., 1991, J. Neurochem. 57:323-331). Briefly, tissue which has been stored at −80° C. was homogenized in ice-cold 5 mM Tris (pH 7.4) using a Polytron and then pelleted by centrifugation at 48,000 g for 20 minutes. The resulting supernatant was discarded, and the membranes washed three times in cold buffer. […]
Frozen pellets were thawed at room temperature and washed three times by resuspension in 50 mM Tris-acetate (pH 7.4) and centrifugation. […] Non-specific binding was determined using 10 μM unlabelled MDL-105519. […]
as §1

With `NC(CCC(=O)O)C(=O)N1CCCC1C(=O)N1CCCC1C(=O)O` (stereo not drawn) [EPP] (H-Glu-Pro-Pro-OH; configuration not given here) the “amplitude of the first synaptic AMPA response” value (AMPA receptor [1]; 140 μM EPP in bath, baseline −83.9±14.1 pA, p<0.05, holding potential −60 mV) was −130.6±22.6 pA, the “change in slope of the AMPA response” value (AMPA receptor [1]; 140 μM EPP versus baseline, p=0.06) was “just failed to reach significance” and the IC50 (AMPA receptor [2]) was 14 µM.
Work on `NCC(=O)NCC(=O)N1CCCC1C(=O)O` (stereo not drawn) [GGP] (H-Gly-Gly-[ξP]-OH) yielded an IC50 ([3]; 4° C., 30 min, semi-quantitative, duplicates) of 11.3 µM.
In the case of `O=C(O)/C(=C/c1c(C(=O)O)[nH]c2cc(Cl)cc(Cl)c12)c1ccccc1` [MDL-105519, reference compound], the IC50 ([3]; reference compound) is reported as 0.0096 µM.

From patent publication US20100166859A1, “NOVEL NUTRACEUTICAL COMPOSITIONS AND USE THEREOF” (priority 2006, published 2010)
